Reference: article PMC12973313 (Chemical Science, 2026)
≈ marks a conversion by molar mass, not a printed value. Where two headings read alike, the source gives them in different places.

Legend:
S. aureus USA300 = assay: MIC assay; assay type: cell-based; conditions: Staphylococcus aureus
Protocol: Next generation SSAs 3, 5, 7, and 9 were specifically designed to increase the activity of SSAs against both drug susceptible and resistant S. aureus and ovarian cancer cells. […] These strains include: (i) USA300, a common clinically relevant, methicillin resistant strain;[47] […]
(§1) Section S3: Biological methods […]
Preparation of bacterial plates : Sterile TSB agar plates were streaked using the desired […]
(§2) Preparation of inoculum: An initial culture was made up by inoculating TSB (5 mL) with 3 single colonies of the desired bacteria under sterile conditions and incubated at 37 °C overnight. The optical density at 600 nm (OD 600) was adjusted using sterile distilled H 2O (dH2O) to equal ~1 x 10^6 bacteria/mL.
(§3) Preparation of 96 -well microplate : A solution of each compound in H2O/5 % EtOH was made […]
The compound solution (200 […]
µL) was added to and diluted 50:50 down the plate. The bacterial suspension (100 µL) was dispensed into each well under sterile conditions. […]

[1] = Cl-/NO3- antiport assay, chloride ISE; assay type: biochemical; conditions: pH 7.2; for EC50 Cl-/NO3- antiport: 50% chloride efflux after 270 s; for n (Hill coefficient): Hill analysis
Source text: Although evidence supports the hypothesis that SSAs are able to act as selective phospholipid membrane coordination and/or disruption agents,[39] to date we have minimal evidence that verifies the role ion transport events may play in the SSA mechanism of biological activity, or the types of transmembrane SSA structures which may be involved in facilitating these events, such as ion channels or membrane pores. Therefore, to confirm the role ion transport may play in the biological activity of SSAs, we explored the ability of SSAs 1, 3, 5, 7, and 9 to mediate ion transport in phospholipid vesicles (Section S17). We initially performed a Cl^−/NO3^− antiport assay.[52] Large unilamellar vesicles composed of 1-palmitoyl-2-oleoyl-sn-glycero-3-phosphocholine (POPC) were prepared containing NaCl (ionic strength = 500 mM) buffered to pH 7.2 with sodium phosphate salts. The vesicles were suspended in NaNO3 (ionic strength = 500 mM) at pH 7.2 (Fig. 4a). On addition of the SSA as a 5 mM DMSO stock solution (which was maintained throughout these experiments to minimise any variation in aggregation state induced by changes in concentration), any resulting chloride efflux was detected using a chloride ion selective electrode (ISE). All of these molecules but compound 1 (Section S17) mediated a modest amount of chloride efflux when added at 10 mol% w.r.t. lipid (Fig. 4b and c)which is surprising given the negative charge of the SSA anion. […] We were unable to observe significant transport activity when these compounds were added as a stock solution dissolved in water (5 mM). […]
Section S3: Biological methods
Preparation of vesicles: A stock solution of 1-palmitoyl-2-oleoyl-sn-glycero-3-phosphocholine (POPC) was prepared by dissolving 1 g of POPC in 35 mL de-acidified CHCl3. The CHCl3 was passed through a column of basic alumina before use. This solution was stored at -20 °C when […]
A lipid film of POPC was prepared by adding 1–4 mL of the above stock solution into a pre-weighed falcon tube and gently removing the CHCl3 under a stream of nitrogen. The lipid film was dried under vacuum overnight. The lipid film was re-hydrated by vortexing with the desired internal buffer solution, then subjected to 9 freeze-thaw cycles. Typically, the lipids were not thawed on the last cycle and were stored at -20 °C for use at a later date.
The lipid was thawed to room temperature and allowed to stand for 30 mins, then extruded 27 times through a 200 nm polycarbonate membrane. The resulting unilamellar vesicles were dialysed against the desired external buffer solution for a minimum of 2 hours.
Transport experiments protocol: The vesicles prepared as described above were diluted to a known volume of 5 mL using the desired external buffer solution. This solution was further diluted into individual 5 mL samples for testing at a final lipid concentration of 1 mM. The transporter was added to the vesicles from a stock solution in DMSO (5 mM) after 30 s in order to initiate the transport and any resulting chloride efflux was monitored using a chloride selective electrode (ISE – Cole Parmer). At the end of the experiment, the vesicles were lysed by the addition of 40 µL Triton-X 100 (10 wt% in H2O). The final electrode reading was taken 2 mins later and used to calibrate 100% chloride efflux. Each experiment was performed 3 […]
Section S17: Ion transport studies
Cl-/NO3- antiport Hill plots – pH 7.2
Internal buffer: 500 mM NaCl buffered to pH 7.2 with 5 mM sodium phosphate salts.
External buffer: 500 mM NaNO3 buffered to pH 7.2 with 5 mM sodium phosphate salts.
Figure S134 - Transport data for the Cl-/NO3- antiport Hill plot experiment with compound 1.
Full Hill analysis was not performed due to the low observed activity of this compound.
(1 picture or pasted object on this page, not shown here)

[2] = Quantitative 1H NMR, D2O 5% EtOH (self-association); assay type: physicochemical; conditions: 5.56 mM, 298 K, proportion NMR silent
Source text: However, when supplied as a 1 : 1 enantiomeric mixture, although the trend in increased incorporation of 7 + 9 over 3 + 5 into the higher order aggregate structure was retained from previous observations in polar organic solvents, the total proportion of SSA incorporated into these higher order structures was approximately 20% lower (from ≈ 50% to ≈ 30%) for the 1 : 1 enantiomeric mixture of 3 + 5 over the homogenous solution of those same SSAs.

E. Faecium NCTC 12204 = assay: MIC assay; assay type: cell-based; conditions: Enterococcus faecium, NCTC12204; lowest concentration with no visible growth
Protocol: as §1
(§4) Preparation of bacterial plates : Sterile TSB agar plates were streaked using the desired bacteria [Staphylococcus aureus (9144, 13616, USA 300 and 1199B ), Enterococcus faecalis (NCTC 775 and 12201 ) and Enterococcus faecium (NCTC 12204)] and incubated at 37 °C […]
as §2, §3
(§5) . The compound solution (200
(§6) […]. The bacterial suspension (100 µL) was dispensed into each well under sterile conditions. The plates were sealed using parafilm and incubated at 37 °C for 20 hours, after which the OD 600 was measured.

E. Faecalis NCTC 12201 = assay: MIC assay; assay type: cell-based; conditions: Enterococcus faecalis, NCTC12201; lowest concentration with no visible growth
Protocol: as §1, §4, §2, §3, §5, §6

[3] = USA300, 15 h, total molecular concentration, after 900 min, read-out: MIC USA300
[4] = USA300, lowest concentration with no visible growth, read-out: MIC (mM) S. aureus USA 300

Compound | MIC (S. aureus USA300; [3]) | MIC (S. aureus USA300; [4]) | EC50 Cl-/NO3- antiport [1] | n (Hill coefficient) [1] | Q NMR (%) SSA anion [2] | Q NMR (%) SSA cation [2] | MIC (E. Faecium NCTC 12204) | MIC (E. Faecalis NCTC 12201) | n (Hill coefficient) ([1]; listed as 5) | Q NMR (%) SSA anion ([2]; listed as 5) | Q NMR (%) SSA cation ([2]; listed as 5) | n (Hill coefficient) ([1]; listed as 3) | Q NMR (%) SSA anion ([2]; listed as 3) | Q NMR (%) SSA cation ([2]; listed as 3)
O=C(Nc1ccc(C(F)(F)F)cc1)N[C@@H](Cc1ccccc1)C(=O)O [SSA 7] | 0.087 mM (≈ 30.7 µg/mL) | 0.087 mM (≈ 30.7 µg/mL) | > 15 mol% w.r.t. lipid | 1.4 | 51% | 48% | > 2.78 mM | > 2.78 mM |  |  |  |  |  | 
O=C(O)CNC(=O)Nc1ccc(C(F)(F)F)cc1 [SSA 1] | > 2.78 mM | > 2.78 mM |  |  |  |  | > 2.78 mM | > 2.78 mM |  |  |  |  |  | 
O=C(Nc1ccc(C(F)(F)F)cc1)N[C@H](Cc1ccccc1)C(=O)O [SSA 9] | 0.087 mM (≈ 30.7 µg/mL) | 0.087 mM (≈ 30.7 µg/mL) | > 15 mol% w.r.t. lipid | 1.3 | 58% | 53% | > 2.78 mM | > 2.78 mM |  |  |  |  |  | 
CC(C)CC(NC(=O)Nc1ccc(C(F)(F)F)cc1)C(=O)O (stereo not shown) [SSA 5] |  |  | > 15 mol% w.r.t. lipid |  |  |  |  |  | 1.7 | 52% | 48% |  |  | 
CC(C)CC(NC(=O)Nc1ccc(C(F)(F)F)cc1)C(=O)O (stereo not shown) [SSA 3] | > 2.78 mM |  | > 15 mol% w.r.t. lipid |  |  |  | > 2.78 mM | > 2.78 mM |  |  |  | 1.4 | 50% | 44%
